In paper PMC5064907, “Tissue expression and antibacterial activity of host defense peptides in chicken” (BMC Veterinary Research, 2016):
Like-named read-outs stand apart in the source and are kept apart here. Residues, ends and D or L forms follow the SMILES beside them. No end group written: not given here.

Tests used:
[1] = system: Escherichia coli ATCC 25922; type: cell-based; settings: for Antibacterial activity over the tested concentrations: 0.5, 1, 2.5 and 5 μM peptide, Fig. 2b; for Antibacterial activity over the tested concentrations / Killing activity among tested HDPs at less than 5 μM: 2 h; for Antibacterial activity over the tested concentrations / Antibacterial (lytic) activity against E.coli at 5 μM: 37 °C; for Relative antibacterial effect among all tested chicken HDPs / Killing activity among tested HDPs at less than 5 μM: E. coli; for Relative antibacterial effect among all tested chicken HDPs: under test conditions (0.5-5 μM, 2 h); for Bacteria killed at 0.5 μM: ATCC 25922, 2 h; for Antibacterial (lytic) activity against E.coli at 5 μM: 5 μM peptide, 6 × 10^6 CFU/ml E. coli ATCC 25922, 2 h, luminescence, Fig. 2a; for Killing activity among tested HDPs at less than 5 μM: less than 5 μM peptide; for Efficiency in reducing E. coli cell viability and damaging cell membranes (comparison among the CATHs): discussion summary of the viability and membrane damage data
Experimental: Gram-negative bacteria, Escherichia coli ATCC 25922, were purchased from Korean Collection for Type Culture and tested against each peptide. Cell viability analysis was carried out as previously reported. Briefly, 6 × 10^6 colony–forming units (CFU)/ml bacteria suspensions (90 μl) were placed into 96 well plates, followed by the addition of 10 μl of serial diluted peptide (final 0, 0.5, 1, 2.5, 5 μM) in triplicate. After 2 h incubation at 37 °C, equal volume of BacTiter-Glo™ Reagent (Promega) was added, and incubated for 5 min after which luminescence was measured with GloMax-Multi Detection System (Promega).
E. coli (6 × 10^6) were incubated with indicated amounts of peptide for 2 h and cell viability was compared to untreated cells. […] Each bar represents the mean ± S.D. value of at least three independent experiments. Non-treated cell considered as 100 % cell viability and peptides treated cell viability was compared and calculated in percentile. *** indicate p ≤ 0.001, ** indicate p ≤ 0.01 and * indicate p ≤ 0.05

E.coli = settings: previous report; cited from earlier work
From the text: Even though many tested chicken HDPs show varying efficiencies against pathogens, the majority kill bacteria at low concentration. […] These four peptides have very low net charge from 0.1 to 1.8. AvBD4 has 24 % hydrophobicity with 5.8 net charge and can kill bacteria very well compared to AvBD5, -8 and -13 that have the same hydrophobicity but lower cationicity of 0.1 to […].

E. coli = experiment: Detection of damaged E. coli membranes, LIVE/DEAD BacLight staining, confocal laser scanning microscopy; type: cell-based, Escherichia coli; settings: 5 μM peptide, 6.5 × 10^6 CFU E. coli, 10 mM phosphate buffer pH 7.0, 37 °C, 2 h
Experimental: Fig. 3 Escherichia coli viability and membrane damage following treatment with cathelicidins. Membrane damage in E. coli treated with each synthetic cathelicidin peptide (5 μM) was detected with a LIVE/DEAD BacLight Bacterial Viability Kit. Green fluorescence indicates live bacteria with intact membranes; red fluorescence indicates dead bacteria with damaged membranes.

Compound | Antibacterial activity over the tested concentrations [1] | Antibacterial (lytic) activity against E.coli at 5 μM [1] | Killing activity among tested HDPs at less than 5 μM [1] | also measured
CSCC[C@H](NC(=O)[C@H](Cc1c[nH]cn1)NC(=O)[C@H](Cc1ccc(O)cc1)NC(=O)[C@@H](N)CCCNC(=N)N)C(=O)N[C@@H](CCC(N)=O)C(=O)N[C@@H](CS)C(=O)NCC(=O)N[C@@H](Cc1ccc(O)cc1)C(=O)N[C@@H](CCCNC(=N)N)C(=O)NCC(=O)N[C@H](C(=O)N[C@@H](Cc1ccccc1)C(=O)N[C@@H](CS)C(=O)N[C@H](C(=O)N1CCC[C@H]1C(=O)NCC(=O)N[C@@H](CCCCN)C(=O)N[C@@H](CS)C(=O)N1CCC[C@H]1C(=O)N[C@@H](Cc1ccc(O)cc1)C(=O)NCC(=O)N[C@@H](CC(N)=O)C(=O)N[C@@H](C)C(=O)N[C@@H](Cc1ccc(O)cc1)C(=O)N[C@@H](CC(C)C)C(=O)NCC(=O)N[C@@H](CC(C)C)C(=O)N[C@@H](CS)C(=O)N[C@@H](CCCNC(=N)N)C(=O)N1CCC[C@H]1C(=O)N[C@@H](CCCCN)C(=O)N[C@@H](Cc1ccc(O)cc1)C(=O)N[C@@H](CO)C(=O)N[C@@H](CS)C(=O)N[C@@H](CS)C(=O)N[C@@H](CCCNC(=N)N)C(=O)N[C@@H](Cc1c[nH]c2ccccc12)C(=O)O)[C@@H](C)O)[C@@H](C)O [AvBD4] (H-RYHMQCGYRGTFCTPGKCPYGNAYLGLCRPKYSCCRW-OH; N-terminus and C-terminus assumed) |  |  |  | Antibacterial activity over the tested concentrations ([1]; listed as BD4): strongest activity among the three; Relative antibacterial effect among all tested chicken HDPs [1]: strongest antibacterial effect among all tested chicken HDPs; Relative antibacterial effect among all tested chicken HDPs ([1]; listed as β-defensin4): strongest antibacterial activity among all tested chicken HDPs
CC[C@H](C)[C@H](NC(=O)CNC(=O)[C@H](CC(N)=O)NC(=O)[C@H](CC(N)=O)NC(=O)[C@H](CS)NC(=O)[C@@H](NC(=O)CNC(=O)[C@@H](NC(=O)[C@H](Cc1c[nH]c2ccccc12)NC(=O)[C@H](Cc1ccc(O)cc1)NC(=O)[C@H](Cc1ccc(O)cc1)NC(=O)[C@@H]1CCCN1C(=O)[C@H](CCCNC(=N)N)NC(=O)[C@H](CCCNC(=N)N)NC(=O)[C@H](CS)NC(=O)[C@@H](NC(=O)CNC(=O)[C@@H]1CCCN1C(=O)[C@H](Cc1ccccc1)NC(=O)[C@H](CS)NC(=O)[C@H](CC(C)C)NC(=O)CNC(=O)[C@H](CC(N)=O)NC(=O)[C@H](CCCNC(=N)N)NC(=O)[C@H](CC(C)C)NC(=O)[C@H](CCCNC(=N)N)NC(=O)[C@H](CS)NC(=O)[C@@H](NC(=O)[C@H](CC(=O)O)NC(=O)[C@@H](NC(=O)[C@@H]1CCCN1C(=O)[C@@H](N)CCCNC(=N)N)[C@@H](C)CC)[C@@H](C)O)[C@@H](C)CC)[C@@H](C)CC)[C@@H](C)O)C(=O)NCC(=O)N[C@@H](CO)C(=O)N[C@@H](CS)C(=O)N[C@@H](CS)C(=O)N[C@@H](C)C(=O)N[C@@H](CCCNC(=N)N)C(=O)O [AvBD7] (H-RPIDTCRLRNGLCFPGICRRPYYWIGTCNNGIGSCCAR-OH; N-terminus and C-terminus assumed) | very strong antibacterial activity at all concentration |  |  | 
CC[C@H](C)[C@H](NC(=O)[C@H](C)NC(=O)[C@H](CC(=O)O)NC(=O)[C@H](CCC(=O)O)NC(=O)[C@H](CC(=O)O)NC(=O)[C@@H]1CCCN1)C(=O)N[C@@H](CC(N)=O)C(=O)N[C@@H](CC(N)=O)C(=O)N[C@@H](C)C(=O)N[C@@H](CC(C)C)C(=O)N[C@@H](CC(N)=O)C(=O)N[C@@H](CCCCN)C(=O)N[C@H](C(=O)N[C@@H](CS)C(=O)N[C@@H](CO)C(=O)N[C@H](C(=O)NCC(=O)N[C@@H](CCCNC(=N)N)C(=O)N[C@@H](CCCNC(=N)N)C(=O)N[C@@H](CCC(N)=O)C(=O)N[C@@H](CCCNC(=N)N)C(=O)N[C@@H](CO)C(=O)N[C@H](C(=O)N[C@@H](CS)C(=O)N[C@@H](CCCCN)C(=O)N[C@@H](CCC(N)=O)C(=O)N[C@@H](CC(C)C)C(=O)N[C@@H](CC(C)C)C(=O)N[C@@H](CCCCN)C(=O)N[C@@H](CCCCN)C(=O)O)[C@@H](C)CC)[C@@H](C)O)C(C)C [cNK3] (H-PDEDAINNALNKVCSTGRRQRSICKQLLKK-OH; N-terminus and C-terminus assumed) | very strong antibacterial activity at all concentration |  |  | Bacteria killed at 0.5 μM [1]: 50%
GLPQDCERRGGFCSHKSCPPGIGRIGLCSKEDFCCRS [AvBD5, synthetic linear peptide corresponding to chicken avian β-defensin 5] |  | very weak lytic activity | minimal killing activity | 
NNEAQCEQAGGICSKDHCFHLHTRAFGHCQRGVPCCRTVYD [AvBD8, synthetic linear peptide corresponding to chicken avian β-defensin 8] |  | very weak lytic activity | minimal killing activity | Lethal dose (LD)50 against E.coli (E.coli): 27 µM
PDSCNHDRGLCRVGNCNPGEYLAKYCFEPVILLCCKPLSPTPTKT [AvBD12, synthetic linear peptide corresponding to chicken avian β-defensin 12] |  | very weak lytic activity | minimal killing activity | 
PDTVACRTQGNFCRAGACPPTFTISGQCHGGLLNCCAKIPAQ [AvBD10, synthetic linear peptide corresponding to chicken avian β-defensin 10] |  | very weak lytic activity | minimal killing activity | 
PIRNWWIRIWEWLNGIRKRLRQRSPFYVRGHLNVTSTPQP [CATB1] |  |  |  | E. coli membrane damage (red fluorescence, LIVE/DEAD BacLight) (E. coli): greater with CATH2 or CATH3 than with CATH1 or CATHB1; Efficiency in reducing E. coli cell viability and damaging cell membranes (comparison among the CATHs) [1]: weak antibacterial activity compared to others
PVLVQRGRFGRFLRKIRRFRPKVTITIQGSARFG [CATH2] | very strong antibacterial activity at all concentration |  |  | E. coli membrane damage (red fluorescence, LIVE/DEAD BacLight) (E. coli): greater with CATH2 or CATH3 than with CATH1 or CATHB1; Bacteria killed at 0.5 μM [1]: 50%; Efficiency in reducing E. coli cell viability and damaging cell membranes (comparison among the CATHs) [1]: highest efficiency
PVRVKRFWPLVPVAINTVAAGINLYKAIRRK [CATH3] | very strong antibacterial activity at all concentration |  |  | E. coli membrane damage (red fluorescence, LIVE/DEAD BacLight) (E. coli): greater with CATH2 or CATH3 than with CATH1 or CATHB1; Bacteria killed at 0.5 μM [1]: 50%; Efficiency in reducing E. coli cell viability and damaging cell membranes (comparison among the CATHs) [1]: highest efficiency
TATQCRIRGGFCRVGSCRFPHIAIGKCATFISCCGR [AvBD3, synthetic linear peptide corresponding to chicken avian β-defensin 3] | kill effectively over all tested concentrations |  |  | 
